Data published in ChEMBL document CHEMBL4706488, “Design, synthesis and biological evaluation of 2-amino-4-(1,2,4-triazol)pyridine derivatives as potent EGFR inhibitors to overcome TKI-resistance” (Eur J Med Chem, 2020).
Calls of active or inactive are those of the source. The rule behind the calls is not given here.

Legend:
[1] = Potency index, ratio of osimertinib IC50 to test compound IC50 for antiproliferative activity against human U87MG Human EGFR vIII cells overexpressing EGFRvIII mutant assessed as inhibition of cell proliferation by MTT assay; type: functional
[2] = tested on: NCI-H1975; test: Induction of apoptosis in human NCI-H1975 cells assessed as live cells at 20 uM by annexinV-FITC/propidium iodide staining based flow cytometry analysis (reference value: 98.6 %); type: functional
[3] = target: Epidermal growth factor receptor (Homo sapiens, UniProt P00533, L858R/T790M); test: biochemical; type: cell-based, Sf21
Epidermal growth factor receptor (Homo sapiens, UniProt P00533, L858R/T790M), sequence (P00533 25-1210 T790M/L858R limits assumed): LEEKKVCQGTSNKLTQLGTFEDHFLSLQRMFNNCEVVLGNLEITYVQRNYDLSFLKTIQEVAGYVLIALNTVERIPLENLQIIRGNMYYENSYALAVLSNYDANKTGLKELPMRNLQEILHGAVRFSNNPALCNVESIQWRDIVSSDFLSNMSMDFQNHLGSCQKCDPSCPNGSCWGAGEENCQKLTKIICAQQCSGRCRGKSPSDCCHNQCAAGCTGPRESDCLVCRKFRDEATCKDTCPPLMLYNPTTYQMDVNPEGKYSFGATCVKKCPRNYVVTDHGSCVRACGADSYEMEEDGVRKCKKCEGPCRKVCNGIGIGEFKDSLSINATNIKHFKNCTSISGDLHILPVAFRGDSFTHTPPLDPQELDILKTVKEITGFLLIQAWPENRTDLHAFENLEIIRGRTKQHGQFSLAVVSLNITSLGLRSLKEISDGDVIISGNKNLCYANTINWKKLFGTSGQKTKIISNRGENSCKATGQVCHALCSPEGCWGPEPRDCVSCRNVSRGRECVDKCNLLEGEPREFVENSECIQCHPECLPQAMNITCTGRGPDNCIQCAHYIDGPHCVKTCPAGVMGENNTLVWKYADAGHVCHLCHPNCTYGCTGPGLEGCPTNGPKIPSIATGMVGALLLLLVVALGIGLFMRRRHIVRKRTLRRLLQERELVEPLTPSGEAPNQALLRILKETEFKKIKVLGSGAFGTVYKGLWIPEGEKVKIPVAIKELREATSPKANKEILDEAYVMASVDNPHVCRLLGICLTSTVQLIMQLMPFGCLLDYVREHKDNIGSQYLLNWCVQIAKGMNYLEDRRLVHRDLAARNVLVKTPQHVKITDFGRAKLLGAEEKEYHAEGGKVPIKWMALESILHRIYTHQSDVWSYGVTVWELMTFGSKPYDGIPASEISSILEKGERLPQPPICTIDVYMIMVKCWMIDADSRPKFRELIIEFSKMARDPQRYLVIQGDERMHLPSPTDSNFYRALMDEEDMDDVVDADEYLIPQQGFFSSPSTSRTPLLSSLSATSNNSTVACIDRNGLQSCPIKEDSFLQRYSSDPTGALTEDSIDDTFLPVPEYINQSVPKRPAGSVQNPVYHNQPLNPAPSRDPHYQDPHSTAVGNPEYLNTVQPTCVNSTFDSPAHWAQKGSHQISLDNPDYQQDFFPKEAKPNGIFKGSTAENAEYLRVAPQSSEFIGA

[4] = tested on: NCI-H1975; test: Induction of apoptosis in human NCI-H1975 cells assessed as necrotic cells at 10 uM by annexinV-FITC/propidium iodide staining based flow cytometry analysis (reference value: 0.44 %); type: functional
[5] = tested on: NCI-H1975; test: Induction of apoptosis in human NCI-H1975 cells assessed as late apoptotic cells at 10 uM by annexinV-FITC/propidium iodide staining based flow cytometry analysis (reference value: 0.42 %); type: functional
[6] = tested on: U-87 MG; test: cells; type: functional, cell-based, U-87MG ATCC; settings: Homo sapiens;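 also: antiproliferative effect on U-87 MG cells carrying wild-type EGFR, growth inhibition read out by MTT assay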
Description: Antiproliferative activity against human U-87MG cells harboring wild type EGFR assessed as inhibition of cell growth by MTT assay

[7] = tested on: NCI-H1975; test: Induction of apoptosis in human NCI-H1975 cells assessed as necrotic cells at 20 uM by annexinV-FITC/propidium iodide staining based flow cytometry analysis (reference value: 0.44 %); type: functional
[8] = tested on: A-431; test: cells; type: functional, cell-based; settings: Homo sapiens;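 also: antiproliferative test in A-431 cells carrying wild-type EGFR, with cell growth inhibition read by MTT assay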
Description: Antiproliferative activity against human A-431 cells harboring wild type EGFR assessed as inhibition of cell growth by MTT assay

[9] = Potency index, ratio of lazertinib IC50 to test compound IC50 for antiproliferative activity against human U87MG Human EGFR vIII cells overexpressing EGFRvIII mutant assessed as inhibition of cell proliferation by MTT assay; type: functional
[10] = tested on: NCI-H1975; test: cells; type: functional, cell-based; settings: Homo sapiens
[11] = tested on: NCI-H1975; test: Induction of apoptosis in human NCI-H1975 cells assessed as late apoptotic cells at 20 uM by annexinV-FITC/propidium iodide staining based flow cytometry analysis (reference value: 0.42 %); type: functional
[12] = tested on: NCI-H1975; test: Induction of apoptosis in human NCI-H1975 cells assessed as late apoptotic cells at 5 uM by annexinV-FITC/propidium iodide staining based flow cytometry analysis (reference value: 0.42 %); type: functional
[13] = tested on: NCI-H1975; test: Induction of apoptosis in human NCI-H1975 cells assessed as necrotic cells at 5 uM by annexinV-FITC/propidium iodide staining based flow cytometry analysis (reference value: 0.44 %); type: functional
[14] = tested on: NCI-H1975; test: Induction of apoptosis in human NCI-H1975 cells assessed as early apoptotic cells at 10 uM by annexinV-FITC/propidium iodide staining based flow cytometry analysis (reference value: 0.53 %); type: functional
[15] = tested on: NCI-H1975; test: Induction of apoptosis in human NCI-H1975 cells assessed as live cells at 10 uM by annexinV-FITC/propidium iodide staining based flow cytometry analysis (reference value: 98.6 %); type: functional
[16] = tested on: NCI-H1975; test: Induction of apoptosis in human NCI-H1975 cells assessed as early apoptotic cells at 20 uM by annexinV-FITC/propidium iodide staining based flow cytometry analysis (reference value: 0.53 %); type: functional
[17] = tested on: U87MG Human EGFR vIII; test: Induction of apoptosis in human U87MG Human EGFR vIII cells by annexinV-FITC/propidium iodide staining based flow cytometry analysis; type: functional, cell-based
[18] = target: Epidermal growth factor receptor (Homo sapiens, UniProt P00533); test: biochemical; type: cell-based, Sf21
Epidermal growth factor receptor (Homo sapiens, UniProt P00533), sequence (P00533 whole entry): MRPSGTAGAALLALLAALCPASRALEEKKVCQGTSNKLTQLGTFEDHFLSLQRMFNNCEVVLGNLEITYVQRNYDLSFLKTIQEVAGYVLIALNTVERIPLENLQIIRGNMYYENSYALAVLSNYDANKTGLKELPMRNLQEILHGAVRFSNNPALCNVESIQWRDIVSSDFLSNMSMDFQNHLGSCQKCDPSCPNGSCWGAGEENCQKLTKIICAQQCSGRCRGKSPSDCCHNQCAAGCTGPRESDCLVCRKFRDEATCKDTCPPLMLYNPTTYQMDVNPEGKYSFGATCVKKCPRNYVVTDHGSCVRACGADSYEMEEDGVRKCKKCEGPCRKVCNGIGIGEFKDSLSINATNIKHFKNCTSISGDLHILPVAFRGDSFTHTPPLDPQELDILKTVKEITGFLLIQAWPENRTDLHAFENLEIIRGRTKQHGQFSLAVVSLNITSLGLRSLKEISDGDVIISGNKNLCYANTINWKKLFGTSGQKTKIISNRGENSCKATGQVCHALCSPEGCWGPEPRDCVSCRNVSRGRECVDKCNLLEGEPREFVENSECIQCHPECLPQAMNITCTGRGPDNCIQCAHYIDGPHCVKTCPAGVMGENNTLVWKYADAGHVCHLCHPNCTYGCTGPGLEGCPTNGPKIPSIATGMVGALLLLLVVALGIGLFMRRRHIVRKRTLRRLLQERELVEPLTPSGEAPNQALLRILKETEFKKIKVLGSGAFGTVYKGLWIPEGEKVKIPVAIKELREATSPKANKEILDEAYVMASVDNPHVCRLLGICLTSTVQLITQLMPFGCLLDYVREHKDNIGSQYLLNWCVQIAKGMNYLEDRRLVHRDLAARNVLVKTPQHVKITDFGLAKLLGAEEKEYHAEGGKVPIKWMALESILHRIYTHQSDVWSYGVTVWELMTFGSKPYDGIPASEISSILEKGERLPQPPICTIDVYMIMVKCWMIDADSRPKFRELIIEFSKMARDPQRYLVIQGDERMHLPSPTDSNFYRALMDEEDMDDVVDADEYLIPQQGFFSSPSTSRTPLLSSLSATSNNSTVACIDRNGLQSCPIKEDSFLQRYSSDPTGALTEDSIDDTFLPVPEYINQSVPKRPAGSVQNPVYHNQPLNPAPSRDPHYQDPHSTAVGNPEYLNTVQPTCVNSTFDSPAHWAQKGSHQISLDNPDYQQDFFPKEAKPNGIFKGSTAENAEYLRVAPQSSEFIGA
Description: Inhibition of wild type N-terminal GST-tagged human EGFR cytoplasmic domain (669 to 1210 residues) expressed in baculovirus infected Sf21 cells using biotin-labeled TK substrate preincubated for 30 mins followed by substrate and ATP addition at Km concentration and further incubated for 20 mins by HTRF assay

[19] = tested on: NCI-H1975; test: Induction of apoptosis in human NCI-H1975 cells assessed as live cells at 5 uM by annexinV-FITC/propidium iodide staining based flow cytometry analysis (reference value: 98.6 %); type: functional
[20] = cells; type: functional, tissue-based; settings: Homo sapiens, U87MG Human EGFR vIII
Description: Antiproliferative activity against human U87MG Human EGFR vIII cells overexpressing EGFRvIII mutant assessed as inhibition of cell growth by MTT assay

[21] = tested on: NCI-H1975; test: Induction of apoptosis in human NCI-H1975 cells assessed as early apoptotic cells at 5 uM by annexinV-FITC/propidium iodide staining based flow cytometry analysis (reference value: 0.53 %); type: functional
[22] = target: Tyrosine-protein kinase Lck (Homo sapiens) (UniProt P06239); test: Inhibition of recombinant human LCK at 1 uM by Z-lyte assay relative to control
[23] = target: BDNF/NT-3 growth factors receptor (Homo sapiens) (UniProt Q16620); test: Inhibition of recombinant human His-tagged NTRK2 (526 to 638 residues) expressed in baculovirus expression system at 1 uM by Z-lyte assay relative to control
[24] = target: Insulin-like growth factor 1 receptor (Homo sapiens) (UniProt P08069); test: Inhibition of recombinant human C-terminal His-tagged IGF1R (960 to 1397 residues) expressed in baculovirus expression system at 1 uM by Z-lyte assay relative to control
[25] = target: Tyrosine-protein kinase BTK (Homo sapiens) (UniProt Q06187); test: Inhibition of recombinant full length human His-tagged BTK expressed in baculovirus expression system at 1 uM by Z-lyte assay relative to control
[26] = target: Aurora kinase B (Homo sapiens) (UniProt Q96GD4); test: Inhibition of recombinant full length human His-tagged AURKB expressed in baculovirus expression system at 1 uM by Z-lyte assay relative to control
Aurora kinase B (Homo sapiens), sequence (Q96GD4 whole entry): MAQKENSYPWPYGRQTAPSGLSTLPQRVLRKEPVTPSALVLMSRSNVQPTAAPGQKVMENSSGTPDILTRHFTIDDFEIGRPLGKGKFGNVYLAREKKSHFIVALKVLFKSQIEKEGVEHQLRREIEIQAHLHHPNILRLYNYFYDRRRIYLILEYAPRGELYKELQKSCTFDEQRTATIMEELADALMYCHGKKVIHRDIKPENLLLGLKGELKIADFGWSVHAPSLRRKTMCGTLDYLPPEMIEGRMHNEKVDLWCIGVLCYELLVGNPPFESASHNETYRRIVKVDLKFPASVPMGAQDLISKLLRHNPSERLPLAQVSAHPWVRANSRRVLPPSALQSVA

[27] = target: Serine/threonine-protein kinase B-raf (Homo sapiens) (UniProt P15056); test: Inhibition of recombinant full length human GST-tagged BRAF expressed in baculovirus expression system at 1 uM by Z-lyte assay relative to control
Serine/threonine-protein kinase B-raf (Homo sapiens), sequence (P15056 whole entry, the tested form may be a part): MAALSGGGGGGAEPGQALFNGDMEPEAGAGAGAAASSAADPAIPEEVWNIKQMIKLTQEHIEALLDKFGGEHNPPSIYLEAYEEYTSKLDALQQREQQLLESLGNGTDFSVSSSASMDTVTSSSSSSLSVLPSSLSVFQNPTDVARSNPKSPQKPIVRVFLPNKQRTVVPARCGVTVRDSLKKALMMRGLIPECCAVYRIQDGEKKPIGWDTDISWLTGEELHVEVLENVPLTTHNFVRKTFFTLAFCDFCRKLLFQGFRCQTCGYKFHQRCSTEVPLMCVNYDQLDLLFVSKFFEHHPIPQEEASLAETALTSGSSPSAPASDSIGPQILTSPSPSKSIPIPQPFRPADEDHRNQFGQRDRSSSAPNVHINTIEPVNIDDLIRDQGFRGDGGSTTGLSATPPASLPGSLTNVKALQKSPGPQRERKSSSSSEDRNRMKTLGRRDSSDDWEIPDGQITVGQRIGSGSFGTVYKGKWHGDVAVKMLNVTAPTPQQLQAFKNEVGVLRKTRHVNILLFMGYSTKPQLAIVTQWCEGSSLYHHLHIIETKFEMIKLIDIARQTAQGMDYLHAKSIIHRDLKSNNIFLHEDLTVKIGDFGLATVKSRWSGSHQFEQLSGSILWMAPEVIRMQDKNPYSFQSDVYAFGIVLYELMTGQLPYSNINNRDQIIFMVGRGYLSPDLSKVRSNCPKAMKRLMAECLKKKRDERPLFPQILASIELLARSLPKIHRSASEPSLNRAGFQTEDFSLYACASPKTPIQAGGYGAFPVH

[28] = target: Macrophage colony-stimulating factor 1 receptor (Homo sapiens) (UniProt P07333); test: Inhibition of recombinant human His-tagged CSF1R (538 to 910 residues) expressed in baculovirus expression system at 1 uM by Z-lyte assay relative to control
[29] = target: Mitogen-activated protein kinase 9 (Homo sapiens) (UniProt P45984); test: Inhibition of recombinant full length human His-tagged MAPK9 expressed in baculovirus expression system at 1 uM by Z-lyte assay relative to control
[30] = target: Receptor tyrosine-protein kinase erbB-4 (Homo sapiens) (UniProt Q15303); test: Inhibition of N-terminal GST-tagged human recombinant HER4 (708 to 993 residues) expressed in baculovirus expression system at 1 uM by Z-lyte assay relative to control
[31] = target: ALK tyrosine kinase receptor (Homo sapiens) (UniProt Q9UM73); test: Inhibition of human recombinant GST-tagged ALK cytoplasmic domain (1058-1620 residues) expressed in baculovirus expression system at 1 uM by Z-lyte assay relative to control
ALK tyrosine kinase receptor (Homo sapiens), sequence (Q9UM73 19-1620 limits assumed): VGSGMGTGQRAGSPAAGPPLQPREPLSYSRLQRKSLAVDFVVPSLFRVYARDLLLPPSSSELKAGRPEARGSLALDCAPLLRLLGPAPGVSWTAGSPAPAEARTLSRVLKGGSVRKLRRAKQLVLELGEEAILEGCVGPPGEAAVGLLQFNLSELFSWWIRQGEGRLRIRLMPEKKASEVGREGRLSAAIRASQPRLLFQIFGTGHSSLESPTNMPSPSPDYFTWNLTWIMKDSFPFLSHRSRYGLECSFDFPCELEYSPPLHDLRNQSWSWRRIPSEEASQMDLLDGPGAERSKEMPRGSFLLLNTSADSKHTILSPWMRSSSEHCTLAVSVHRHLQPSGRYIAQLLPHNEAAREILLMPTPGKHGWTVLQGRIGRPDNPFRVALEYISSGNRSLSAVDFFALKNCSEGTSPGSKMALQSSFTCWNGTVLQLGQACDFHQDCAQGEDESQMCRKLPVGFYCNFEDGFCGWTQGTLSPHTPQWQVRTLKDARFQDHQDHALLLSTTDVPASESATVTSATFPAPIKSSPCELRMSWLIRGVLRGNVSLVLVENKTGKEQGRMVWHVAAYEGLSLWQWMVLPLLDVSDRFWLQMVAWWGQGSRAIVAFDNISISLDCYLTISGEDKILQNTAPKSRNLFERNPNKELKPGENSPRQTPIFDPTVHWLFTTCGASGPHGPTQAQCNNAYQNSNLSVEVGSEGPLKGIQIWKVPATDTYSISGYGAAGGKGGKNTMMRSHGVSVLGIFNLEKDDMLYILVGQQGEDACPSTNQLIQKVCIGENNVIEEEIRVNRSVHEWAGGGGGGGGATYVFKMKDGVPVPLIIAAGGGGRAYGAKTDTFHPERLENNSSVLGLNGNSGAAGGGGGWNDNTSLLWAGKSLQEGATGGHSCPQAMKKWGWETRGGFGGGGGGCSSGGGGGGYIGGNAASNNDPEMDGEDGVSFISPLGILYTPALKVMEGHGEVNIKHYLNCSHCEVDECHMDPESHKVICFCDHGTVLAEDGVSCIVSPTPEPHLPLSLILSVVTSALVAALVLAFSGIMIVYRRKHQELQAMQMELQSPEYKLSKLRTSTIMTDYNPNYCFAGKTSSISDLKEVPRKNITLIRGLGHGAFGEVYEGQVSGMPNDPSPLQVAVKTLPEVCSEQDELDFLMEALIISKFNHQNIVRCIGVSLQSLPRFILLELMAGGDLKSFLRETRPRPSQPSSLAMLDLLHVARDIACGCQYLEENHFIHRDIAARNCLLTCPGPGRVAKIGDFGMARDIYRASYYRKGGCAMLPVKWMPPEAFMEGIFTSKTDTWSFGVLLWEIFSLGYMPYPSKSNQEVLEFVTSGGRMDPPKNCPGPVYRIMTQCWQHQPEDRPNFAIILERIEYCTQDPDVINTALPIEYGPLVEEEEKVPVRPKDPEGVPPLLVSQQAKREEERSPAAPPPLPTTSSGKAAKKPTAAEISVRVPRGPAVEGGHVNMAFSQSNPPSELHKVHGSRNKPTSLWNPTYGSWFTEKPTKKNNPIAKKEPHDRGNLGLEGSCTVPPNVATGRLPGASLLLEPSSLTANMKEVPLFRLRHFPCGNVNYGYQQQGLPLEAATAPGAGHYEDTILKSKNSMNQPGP

[32] = target: Receptor tyrosine-protein kinase erbB-2 (Homo sapiens) (UniProt P04626); test: Inhibition of human recombinant His-tagged HER2 (676 to 1255 residues) expressed in baculovirus expression system at 1 uM by Z-lyte assay relative to control
[33] = target: Tyrosine-protein kinase Fyn (Homo sapiens) (UniProt P06241); test: Inhibition of recombinant full length human C-terminal His-tagged FYN expressed in baculovirus expression system at 1 uM by Z-lyte assay relative to control
[34] = target: Hepatocyte growth factor receptor (Homo sapiens) (UniProt P08581); test: Inhibition of recombinant human N-terminal His-tagged cMET (956 to 1390 residues) expressed in baculovirus expression system at 1 uM by Z-lyte assay relative to control
[35] = target: Vascular endothelial growth factor receptor 2 (Homo sapiens) (UniProt P35968); test: Inhibition of recombinant human His-tagged VEGFR2 (789 to 1356 residues) expressed in baculovirus expression system at 1 uM by Z-lyte assay relative to control
[36] = target: Tyrosine-protein kinase JAK2 (Homo sapiens) (UniProt O60674); test: Inhibition of recombinant human GST-tagged JAK2 (809 to 1162 residues) expressed in baculovirus expression system at 1 uM by Z-lyte assay relative to control

| SMILES | Activity [2] | IC50 [3] | Activity [4] | Activity [5] | IC50 [6] | Activity [7] | IC50 [8] | IC50 [10] | Activity [11] | Activity [12] | Activity [13] | Activity [14] | Activity [15] | Activity [16] | Activity [17] | IC50 [18] | Activity [19] | IC50 [20] | Activity [21] | other results |
| --- | --- | --- | --- | --- | --- | --- | --- | --- | --- | --- | --- | --- | --- | --- | --- | --- | --- | --- | --- | --- |
| C=CC(=O)Nc1cc(Nc2cc(-n3c(SC)nnc3-c3ccc(F)cc3)ccn2)ccc1N(C)CCN(C)C | 32.3% | 0.213 µM | 2.14% | 3.86% | 2.4 µM | 10.7% | 6 µM | 5.3 µM | 39% | 2.77% | 0.92% | 2.63% | 91.4% | 18% | inactive | 0.156 µM | 93.8% | 4.1 µM | 2.52% | Ratio IC50 [1]: 3; Ratio IC50 [9]: 25 |
| C=CC(=O)Nc1cc(Nc2cc(-n3c(SC)nnc3-c3ccc(F)cc3)ccn2)c(OC)cc1N(C)CCN(C)C | 84% | 0.0431 µM | 0.91% | 1.87% | 2.8 µM | 3.99% | 4 µM | 5.4 µM | 7.14% | 1.1% | 0.44% | 1.69% | 95.5% | 4.83% | inactive | 0.0893 µM | 97.2% | 18 µM | 1.28% | inhibition [22]: 11%; inhibition [23]: 17%; inhibition [24]: 10%; inhibition [25]: 4%; inhibition [26]: 13%; inhibition [27]: -7%; inhibition [28]: 12%; inhibition [29]: 7%; inhibition [30]: 76%; inhibition [31]: 10%; inhibition [32]: 16%; inhibition [33]: 5%; inhibition [34]: 9%; inhibition [35]: 18%; inhibition [36]: 12% |
